Test results reported in patent US4963538A, “5-oxygenated HMG-CoA reductase inhibitors” (Merck & Co., Inc., priority 1989, dated 1990).

Molecular target: T1, HMG-CoA reductase (Rattus norvegicus, UniProt P51639)
T1 sequence (P51639 1-887): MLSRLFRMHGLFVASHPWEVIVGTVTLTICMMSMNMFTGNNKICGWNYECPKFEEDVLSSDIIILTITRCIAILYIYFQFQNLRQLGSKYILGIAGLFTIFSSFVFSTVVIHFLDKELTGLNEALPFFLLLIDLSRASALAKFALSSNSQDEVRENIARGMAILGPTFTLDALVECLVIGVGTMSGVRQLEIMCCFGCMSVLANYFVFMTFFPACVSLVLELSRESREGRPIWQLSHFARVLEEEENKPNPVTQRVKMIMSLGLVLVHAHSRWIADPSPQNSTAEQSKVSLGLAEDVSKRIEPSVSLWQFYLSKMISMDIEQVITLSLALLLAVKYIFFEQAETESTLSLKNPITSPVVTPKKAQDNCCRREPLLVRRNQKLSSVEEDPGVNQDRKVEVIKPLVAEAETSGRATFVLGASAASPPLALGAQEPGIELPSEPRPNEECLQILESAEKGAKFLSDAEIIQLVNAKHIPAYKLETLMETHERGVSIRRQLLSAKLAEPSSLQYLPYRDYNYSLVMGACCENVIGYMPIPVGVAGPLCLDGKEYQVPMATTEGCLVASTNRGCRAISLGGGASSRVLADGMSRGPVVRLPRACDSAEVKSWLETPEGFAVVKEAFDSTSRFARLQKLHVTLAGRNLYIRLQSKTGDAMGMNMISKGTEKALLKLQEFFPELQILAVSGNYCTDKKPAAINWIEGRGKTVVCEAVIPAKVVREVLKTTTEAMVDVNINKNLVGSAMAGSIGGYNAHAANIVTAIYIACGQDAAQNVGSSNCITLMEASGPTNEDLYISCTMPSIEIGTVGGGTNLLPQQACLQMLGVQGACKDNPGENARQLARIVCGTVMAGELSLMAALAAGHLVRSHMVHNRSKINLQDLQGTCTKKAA
Assay: intrinsic HMG-CoA reductase inhibition, in vitro protocol of J. Med. Chem., 28, p. 347-358 (1985)
Type: biochemical
Settings: compactin (mevastatin) assigned 100; IC50 of test compound compared with that of compactin determined simultaneously
Description: The intrinsic HMG-CoA reductase inhibition activity of the claimed compounds is measured in the in vitro protocol published in J. Med. Chem., 28, p. 347-358 (1985).
For estimation of relative inhibitory potencies, compactin (i.e., mevastatin) was assigned a value of 100 and the IC50 value of the test compound was compared with that of compactin determined simultaneously in the published in vitro protocol.

Row | SMILES | Relative Potency
1 | CCC(C)(C)C(=O)O[C@H]1C[C@@H](C)[C@@H](OC(=O)NCc2ccccc2)[C@@H]2CC[C@H](C)[C@H](CC[C@@H]3C[C@@H](O)CC(=O)O3)[C@H]21 [6(R)-[2-[8(S) (2,2-dimethylbutyryloxy)-2(S)methyl 5(R)-benzylaminocarbonyloxy-6(R)-methyl-1,2,3,4,4a(R)-,5,6,7,8,8a(R)-decahydronaphthyl-1(S)]ethyl]-4-(R)-hydroxy-3,4,5,6-tetrahydro-2H-pyran-2-one] | 360
2 | CCC(C)(C)C(=O)O[C@H]1C[C@@H](C)[C@@H](OCCc2ccccc2)[C@@H]2CC[C@H](C)[C@H](CC[C@@H]3C[C@@H](O)CC(=O)O3)[C@H]21 [6(R)-[2-[8(S)-(2,2-dimethylbutyryloxy)-2(S)-methyl-5(R)-(1-phenylethyl-2-oxy)-6(R)-methyl-1,2,3,4,4a(R)-,5,6,7,8, 8a(R)-decahydronaphthyl-1(S)]ethyl]-4(R)-hydroxy-3,4,5,6-tetrahydro-2H-pyran-2-one] | 300
3 | CCC(C)(C)C(=O)O[C@H]1C[C@@H](C)[C@@H](OP(=O)(c2ccccc2)c2ccccc2)[C@@H]2CC[C@H](C)[C@H](CC[C@@H]3C[C@@H](O)CC(=O)O3)[C@H]21 [6(R)-[2-[8(S)-(2,2-dimethylbutyryloxy)-2(S)-methyl-5(R)-diphenylphosphinyloxy-6(R)-methyl-1,2,3,4,4a(R),5,6,7,8,8a(R)-decahydronaphthyl-1(S)]ethyl]-4(R)-hydroxy-3,4,5,6-tetrahydro-2H-pyran-2-one] | 300
4 | CCC(C)(C)C(=O)O[C@H]1C[C@@H](C)[C@@H](O)[C@@H]2CC[C@H](C)[C@H](CC[C@@H]3C[C@@H](O)CC(=O)O3)[C@H]21 [6(R)-[2-[8(S)-(2,2-dimethylbutyryloxy)-2(S)-methyl-5(R)-hydroxy-6(R)-methyl-1,2,3,4,4a(R),6,7,8,8a(R)-decahydronapththyl-1(S)]ethyl]-4(R)-hydroxy-3,4,5,6-tetrahydro-2H-pyran-2-one] | 50
5 | CCC(C)(C)C(=O)O[C@H]1C[C@@H](C)[C@@H](O)[C@@H]2C=C[C@H](C)[C@H](CC[C@@H]3C[C@@H](O)CC(=O)O3)[C@H]21 [6(R)-[2-[8(S)-(2,2-dimethylbutyryloxy)-2(S)-methyl-5(R)-hydroxy-6(R)-methyl-1,2,4a(R),5,6,7,8,8a(R)-octahydronaphthyl-1(S)]ethyl]-4(R)-hydroxy-3,4,5,6-tetrahydro-2H-pyran-2-one] | 100
6 | CCC(C)(C)C(=O)O[C@H]1C[C@H](C)[C@@H](O)[C@@H]2CC[C@H](C)[C@H](CC[C@@H]3C[C@@H](O)CC(=O)O3)[C@H]21 [6(R)-[2-[8(S)-(2,2-dimethylbutyryloxy)-2(S)-methyl-5(R)-hydroxy-6(S)-methyl-1,2,3,4,4a(R)-,6,7,8,8a(R)-decahydronaphthyl-1(S)]ethyl]-4(R)-hydroxy-3,4,5,6-tetrahydro-2H-pyran-2-one] | 99.6
7 | CCC(C)(C)C(=O)O[C@H]1C[C@H](C)[C@H](O)[C@@H]2CC[C@H](C)[C@H](CC[C@@H]3C[C@@H](O)CC(=O)O3)[C@H]21 [6(R)-[2-[8(S)-(2,2-dimethylbutyryloxy)-2(S)-methyl-5(S)-hydroxy-6(S)-methyl-1,2,3,4,4a-(R)-,6,7,8,8a(R)-decahydronaphthyl-1(S)]ethyl]-4(R)-hydroxy-3,4,5,6-tetrahydro-2H-pyran-2-one] | 11.1
8 | CCC(C)(C)C(=O)O[C@H]1C[C@@H](C)C(=O)[C@@H]2CC[C@H](C)[C@H](CC[C@@H]3C[C@@H](O)CC(=O)O3)[C@@H]12 [6(R)-[2-[8(S)-(2,2-dimethylbutyryloxy)-2(S)-methyl-5-oxo-6(R)-methyl-1,2,3,4,4a(R)-,6,7,8,8a(R)-nonanydronaphthyl-1(S)]ethyl]-4(R)-hydroxy-3,4,5,6-tetrahydro-2H-pyran-2-one] | 125
9 | CCC(C)(C)C(=O)O[C@H]1C[C@@H](C)[C@@H](OC(=O)N(Cc2ccccc2)Cc2ccccc2)[C@@H]2CC[C@H](C)[C@H](CC[C@@H]3C[C@@H](O)CC(=O)O3)[C@H]21 [6(R)-[2-[8(S)-(2,2-dimethylbutyryloxyl)-2(S)-methyl-5(R)-dibenzylaminocarbonyloxy-6(R)-methyl-1,2,3,4,4a(R)-,5,6,7,8,8a(R)-decahydronaphthyl-1(S)]ethyl]-4(R)-hydroxy-3,4,5,6-tetrahydro-2H-pyran-2-one] | 94
